The assay concerns the target T1, OgpAT (Oceanicola granulosus, UniProt Q2CEE2).
T1 construct: gene OG2516_04134; full-length OgpAT, expressed as GST fusion from pGEX-6P-1 in E. coli BL21(DE3) pLysS, GST cut off with PreScission protease; 206 residues in crystal; monomer; biotinylated for SPR; gene immediately downstream of OgOGA
Nature of the assay: surface plasmon resonance, biotinylated protein on streptavidin chip, […] equilibrium fit. In kind it is binding. The note with it: read-out: OgpAT, wt. A general note: In SPR one partner is held on a chip, and binding of the other changes the refractive index at the surface.

Each structure is given as a SMILES string.

T1 sequence (Q2CEE2 whole entry, the tested form may be a part): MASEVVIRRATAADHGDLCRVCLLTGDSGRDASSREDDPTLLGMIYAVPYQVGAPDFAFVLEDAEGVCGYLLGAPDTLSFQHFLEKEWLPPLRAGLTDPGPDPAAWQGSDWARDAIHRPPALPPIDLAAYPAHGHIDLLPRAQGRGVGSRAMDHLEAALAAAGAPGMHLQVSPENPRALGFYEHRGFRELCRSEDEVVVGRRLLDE

For `CC(=O)SCCNC(=O)CCNC(=O)[C@H](O)C(C)(C)COP(=O)(O)OP(=O)(O)OC[C@H]1O[C@@H](n2cnc3c(N)ncnc32)[C@H](O)[C@@H]1OP(=O)(O)O` [AcCoA], the Kd is 8.3 µM.

(Values after paper PMC3814719, “Structure of a bacterial putative acetyltransferase defines the fold of the human O-GlcNAcase C-terminal domain” (Open Biology, 2013).)
